From patent US11337976B2 (Plexxikon Inc., priority 2011, dated 2022)
Read-outs that look alike come from different tables or passages of the source. Blank lines part the entries; values can stand above or below the compound they belong to.

Key:
[1] = system: A375 melanoma cells (B-Raf V600E mutation); experiment: A375 (A375_P-ERK) cell activity / cell growth inhibition assay; type: cell-based, human; conditions: A375 cells (text: A375_P-ERK)
[2] = system: COLO205 colon adenocarcinoma cells (B-Raf V600E mutation); experiment: COLO205 cell growth inhibition assay (ATPlite); type: cell-based, human
Description: Compounds are assessed in a variety of cell based assays. For example human cell lines with B-RafV600E mutation (A375 melanoma, SKMEL3 melanoma, and COLO205 colon adenocarcinoma), as well as tumorigenic cell lines with wild-type B-RAF (SW620 colon adenocarcinoma) or with Ras mutations (SKMEL2 melanoma and IPC298 melanoma).
On day 1, cells are counted, then centrifuged in a conical tube for 5 minutes at 1000 rpm.
On day 2, compound at a maximum concentration of 5 mM is serially diluted 1:3 (e.g. 10 μL with 30 μL dimethyl sulfoxide) for a total of 8 point titration with DMSO as a control. A 1 μL aliquot of each dilution point and control is added to 249 μL growth media and 50 μL is added to a well containing cells, providing 10 μM compound at the maximum concentration point. The cells are incubated for 3 days at 37° C. in 5% CO2.
ATPlite is added 25 μL to each well, shake for 2 minutes, and the cells are incubated at room temperature for 10 minutes, then luminescence is read on Safire reader. The measured luminescence correlates directly with cell number, such that the reading as a function of compound concentration is used to determine the IC50 value.

B-Raf V600E = B-Raf V600E (Homo sapiens (Human), UniProt P15056, V600E); experiment: B-Raf V600E kinase activity biochemical assay (AlphaScreen, biotin-MEK1 substrate); conditions: 100 μM ATP
Description: Assays for biochemical and cell based activity are known in the art, for example, as described in PCT publication WO 2007/002433, the disclosure of which is hereby incorporated by reference as it relates to such assays. For example, the biochemical activity IC50 values are determined with respect to inhibition of B-Raf V600E kinase activity or p-Erk kinase activity, where inhibition of phosphorylation of a peptide substrate is measured as a function of compound concentration. Compounds to be tested are diluted in dimethyl sulfoxide to a concentration of 0.1 mM. These are serially diluted 15 μL into 30 μL of dimethyl sulfoxide seven times in 96 well plates for a total of 8 dilution points, and for each dilution point 1 μL is added to a well of an assay plate. Plates are prepared such that each well in a 384 well plate contains 1 μL of compound in 10 μL volume with 0.1 ng Raf enzyme (i.e. any of B-Raf, c-Raf-1 or B-Raf V600E, Upstate Biotechnology or preparead by methods known to one of skill in the art), 50 mM HEPES, pH 7.0, 50 mM NaCl, 2 mM MgCl2, 1 mM MnCl2, 0.01% Tween-20, 1 mM DTT, and 100 nM biotin-MEK1 as substrate. The reaction is started with addition of 10 μL of 200 μM ATP (i.e. final 100 μM ATP). […] The plates are incubated for 3 hours at room temperature and read on Envision reader (Perkin Elmer). […]

[3] = system: IPC-298 cells, phosphorylated ERK; experiment: IPC-298_P-ERK cell activation assay (phosphorylated ERK, AlphaScreen); type: cell-based, human; conditions: P-ERK activation, one hour treatment
Description: B9 is a squamous cell carcinoma cell line expressing activated HRAS that was isolated from a DMBA/TPA-induced mouse model of skin carcinogenesis (Stoler, et al. The Journal of Cell Biology, 1993, 122(5), 1103-17). IPC-298 is a human melanoma cell line that expresses activated NRAS (Aubert, et al. International Journal of Cancer, 1993, 54(5), 784-92). To determine whether compounds induce phosphorylated ERK and MEK, cells are plated in a 96-well dish and treated with an 8-point titration of compound for one hour at 37° C. The media is then removed and the cells are incubated with lysis buffer containing protease and phosphatase inhibitors. Phosphorylated ERK and MEK in the resulting lysates is detected using AlphaScreen™ technology. To detect phosphorylated ERK, cell lysates are incubated with streptavidin-coated donor beads, anti-mouse IgG acceptor beads, a biotinylated anti-ERK1/2 rabbit antibody, and a mouse antibody that recognizes ERK1/2 only when it is phosphorylated on Thr202 and Tyr204. […] When ERK is phosphorylated, both antibodies can bind the same protein, bringing the donor and acceptor beads into close proximity, producing a signal that can be measured at 580 nm. MEK phosphorylation is detected using a similar approach, only with antibodies directed against total MEK1/2 and MEK1/2 that is phosphorylated at Ser217 and Ser221.

[4] = Homo sapiens, A-375, compounds known in the art
[5] = Homo sapiens, COLO 205, compounds known in the art

Chain of B-Raf V600E (P15056 whole entry V600E): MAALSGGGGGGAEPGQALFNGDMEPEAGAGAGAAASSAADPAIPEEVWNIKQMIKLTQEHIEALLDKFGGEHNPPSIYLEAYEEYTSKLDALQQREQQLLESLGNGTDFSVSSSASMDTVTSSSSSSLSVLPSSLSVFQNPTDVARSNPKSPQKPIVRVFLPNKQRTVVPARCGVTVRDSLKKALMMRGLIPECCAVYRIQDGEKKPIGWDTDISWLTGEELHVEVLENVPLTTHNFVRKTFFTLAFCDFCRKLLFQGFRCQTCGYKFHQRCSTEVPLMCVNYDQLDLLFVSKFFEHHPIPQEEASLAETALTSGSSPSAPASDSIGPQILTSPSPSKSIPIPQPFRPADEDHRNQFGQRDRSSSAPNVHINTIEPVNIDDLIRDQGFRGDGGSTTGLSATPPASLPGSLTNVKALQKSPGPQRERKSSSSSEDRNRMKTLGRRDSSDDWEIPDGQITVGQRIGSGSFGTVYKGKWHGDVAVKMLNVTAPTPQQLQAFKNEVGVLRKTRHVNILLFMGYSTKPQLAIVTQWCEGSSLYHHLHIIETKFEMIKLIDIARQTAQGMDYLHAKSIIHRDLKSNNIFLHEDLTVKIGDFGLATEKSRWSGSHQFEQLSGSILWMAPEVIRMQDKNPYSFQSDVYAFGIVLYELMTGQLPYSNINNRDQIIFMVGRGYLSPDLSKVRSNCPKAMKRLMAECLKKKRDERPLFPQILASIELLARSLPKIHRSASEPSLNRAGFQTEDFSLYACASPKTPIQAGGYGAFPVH

SMILES: COc1ncc(-c2cnc3[nH]cc(C(=O)c4c(F)ccc(NS(=O)(=O)c5cc(F)ccc5F)c4F)c3c2)cn1
IC50 [1, 4]: < 0.5 µM
IC50 [2, 5]: < 1 µM

SMILES: CCCS(=O)(=O)Nc1ccc(F)c(C(=O)c2c[nH]c3ncc(Cl)cc23)c1F
IC50 [1, 4]: < 0.8 µM
IC50 [2, 5]: < 1 µM

SMILES: CCN(C)S(=O)(=O)Nc1ccc(F)c(C(=O)c2c[nH]c3ncc(-c4ccc(Cl)cc4)cc23)c1F [P-0013]
IC50 (B-Raf V600E): < 0.1 µM
IC50 ([1]; Homo sapiens, A-375): < 1 µM

SMILES: O=C(c1c(F)ccc(NS(=O)(=O)N2CCCC2)c1F)c1c[nH]c2ncc(I)cc12 [P-0024]
EC50 [3]: > 10 µM
IC50 [1]: < 1 µM
IC50 [2]: > 1 µM

SMILES: CN(C)S(=O)(=O)Nc1cccc(C(=O)c2c[nH]c3ncc(-c4ccc(C#N)cc4)cc23)c1F [P-0027]
IC50 ([1]; Homo sapiens, A-375): < 1 µM
IC50 ([2]; Homo sapiens, COLO 205): < 1 µM

SMILES: O=C(c1cccc(NS(=O)(=O)N2CC[C@@H](F)C2)c1F)c1c[nH]c2ncc(-c3cnc(C4CC4)nc3)cc12 [P-0327, (3R)—N-[3-[5-(2-cyclopropylpyrimidin-5-yl)-1H-pyrrolo[2,3-b]pyridine-3-carbonyl]-2-fluoro-phenyl]-3-fluoro-pyrrolidine-1-sulfonamide]
IC50 ([1]; Homo sapiens, A-375): < 1 µM

SMILES: CCNS(=O)(=O)Nc1ccc(F)c(C(=O)c2c[nH]c3ncc(-c4cnc(C5CC5)nc4)cc23)c1F [P-0335, [5-(2-cyclopropylpyrimidin-5-yl)-1H-pyrrolo[2,3-b]pyridin-3-yl]-[3-(ethylsulfamoylamino)-2,6-difluoro-phenyl]methanone]
IC50 ([1]; Homo sapiens, A-375): < 1 µM

SMILES: CCC(C)S(=O)(=O)Nc1ccc(F)c(C(=O)c2c[nH]c3ncc(-c4ccc(Cl)cc4)cc23)c1F (stereo not drawn) [P-0337, N-[3-[5-(4-chlorophenyl)-1H-pyrrolo[2,3-b]pyridine-3-carbonyl]-2,4-difluoro-phenyl]butane-2-sulfonamide]
IC50 ([1]; Homo sapiens, A-375): > 1 µM

SMILES: CN(CC(F)(F)F)S(=O)(=O)Nc1ccc(F)c(C(=O)c2c[nH]c3ncc(-c4cnc(C5CC5)nc4)cc23)c1F [P-0340, 5-(2-cyclopropylpyrimidin-5-yl)-3-[2,6-difluoro-3-[[methyl(2,2,2-trifluoroethyl)sulfamoyl]amino]benzoyl]-1H-pyrrolo[2,3-b]pyridine]
IC50 ([1]; Homo sapiens, A-375): < 1 µM

Next, values leading:

IC50 [1, 4]: < 0.5 µM
IC50 [2, 5]: < 1 µM
SMILES: COc1ncc(-c2cnc3[nH]cc(C(=O)c4c(F)ccc(NS(=O)(=O)c5ccccc5F)c4F)c3c2)cn1

IC50 ([1]; Homo sapiens, A-375): > 1 µM
SMILES: Cc1ccnc(-c2cnc3[nH]cc(C(=O)c4cccc(NS(=O)(=O)N5CCCC5)c4F)c3c2)n1 [P-0326, N-[2-fluoro-3-[5-(4-methylpyrimidin-2-yl)-1H-pyrrolo[2,3-b]pyridine-3-carbonyl]phenyl]pyrrolidine-1-sulfonamide]

IC50 ([1]; Homo sapiens, A-375): > 1 µM
SMILES: CNS(=O)(=O)Nc1ccc(F)c(C(=O)c2c[nH]c3ncc(-c4cnc(C5CC5)nc4)cc23)c1F [P-0334, [5-(2-cyclopropylpyrimidin-5-yl)-1H-pyrrolo[2,3-b]pyridin-3-yl]-[2,6-difluoro-3-(methylsulfamoylamino)phenyl]methanone]

IC50 ([1]; Homo sapiens, A-375): < 1 µM
SMILES: O=C(c1c(F)ccc(NS(=O)(=O)N2CC[C@@H](F)C2)c1F)c1c[nH]c2ncc(-c3cnc(C4CC4)nc3)cc12 [P-0338, (3R)—N-[3-[5-(2-cyclopropylpyrimidin-5-yl)-1H-pyrrolo[2,3-b]pyridine-3-carbonyl]-2,4-difluoro-phenyl]-3-fluoro-pyrrolidine-1-sulfonamide]

IC50 ([1]; Homo sapiens, A-375): < 1 µM
SMILES: O=C(c1c(F)ccc(NS(=O)(=O)N2CCC(F)C2)c1F)c1c[nH]c2ncc(-c3cnc(C4CC4)nc3)cc12 (stereo not drawn) [P-0339, N-[3-[5-(2-cyclopropylpyrimidin-5-yl)-1H-pyrrolo[2,3-b]pyridine-3-carbonyl]-2,4-difluoro-phenyl]-3-fluoro-pyrrolidine-1-sulfonamide]
